Experiments:
[1] = test system: HepG2 human liver cancer cell strain; test: In vitro anti-proliferation of tumor cells (CCK-8), HepG2; type: cell-based; settings: HepG2, 72 hours
Procedure: (§1) Experimental Example 2: Determination of the Compounds According to the Present Invention for IC50 of the In Vitro Anti-Proliferation of Tumor Cells
HepG2 human liver cancer cell strain (purchased from Shanghai Institute of Cell Biology, Chinese Academy of Sciences);
(§2) Preparation of a compound: the compound was diluted with DMSO to a final concentration of 10 mM.
(§3) a) Cells in logarithmic growth phase were collected, counted, and re-suspended in complete medium. The concentration of cells was adjusted to a suitable concentration (determined depending on the result of optimization experiment of cell density), and the cells were seeded to a 96-well plate at 100 μl cell suspension per well. The cells were incubated in an incubator at 37° C., 100% relative humidity, 5% CO2 for 24 hours.
(§4) b) A test compound was diluted with the culture medium to 500 μM, and then gradient dilution was performed for 8 times. Cells were added at 25 μl/well. The final concentrations of the compound was in a range from 100 μM and 0 μM, 4-fold diluted, including 10 concentrations.
(§5) c) The cells were incubated in an incubator at 37° C., 100% relative humidity, 5% CO2 for 72 hours.
(§6) d) The culture medium was withdraw and discarded, the complete medium containing 10% CCK-8 was added, and then the cells were incubated in an incubator at 37° C. for 2-4 hours.
(§7) IC50 curve was fitted and IC50 value was calculated by professional software GraphPad Prism 5.0.
(§8) In the experiment, the compounds according to the present invention were determined for their IC50 values of in vitro anti-proliferation of tumor cell strains. The final concentrations of the compounds was in a range from 100 μM and 0 μM, 4-fold diluted, including 10 concentrations.

[2] = test system: 786-O human renal clear cell carcinoma cell strain; test: In vitro anti-proliferation of tumor cells (CCK-8), 786-O; type: cell-based; settings: 786-0, 72 hours
Procedure: as §1
786-O human renal clear cell carcinoma cell strain (purchased from Shanghai Institute of Cell Biology, Chinese Academy of Sciences);
as §2, §3, §4, §5, §6, §7, §8

[3] = test system: SK-OV-3 human ovarian cancer cell strain; test: In vitro anti-proliferation of tumor cells (CCK-8), SK-OV-3; type: cell-based; settings: SK-OV-3, 72 hours
Procedure: as §1
SK-OV-3 human ovarian cancer cell strain (purchased from Shanghai Institute of Cell Biology, Chinese Academy of Sciences);
as §2, §3, §4, §5, §6, §7, §8

[4] = test system: MDA-MB-231 human mammary cancer cell strain; test: In vitro anti-proliferation of tumor cells (CCK-8), MDA-MB-231; type: cell-based; settings: for IC50: Homo sapiens, MDA-MB-231, 72 hours, CCK-8
Procedure: as §1
MDA-MB-231 human mammary cancer cell strain (purchased from Shanghai Institute of Cell Biology, Chinese Academy of Sciences);
as §2, §3, §4, §5, §6, §7, §8

[5] = Pharmacokinetics in mice; type: in vivo; settings: female, plasma, CD-1 mouse; for bioavailability: PO 5 mg/kg vs IV 1 mg/kg, read-out: F (oral bioavailability); for AUC(0-t): read-out: AUClast (area under the curve)
Procedure: Administration route: intravenous injection (IV); per os (PO).
Fasting condition: free access to water, no fasting.
The mice were weighed before administration, and the administration volume was calculated based on their body weights (IV group: 4 mL/kg; PO group: 10 mL/kg).
Administration route and dose: Intravenous (IV) group: 1 mg/kg; Oral (PO) group: 5 mg/kg.
Animal grouping: 3 mice/group, an IV group and a PO group for each test compound.
After administration, 30 μL whole blood was collected from rim of the eyes of mice in the IV group at each pre-determined time point (5 min, 15 min, 30 min, 1 h, 2 h, 4 h, 8 h, 24 h), and 30 μL whole blood was collected from rim of the eyes of mice in the PO group at each pre-determined time point (15 min, 30 min, 1 h, 2 h, 4 h, 8 h, 24 h). The whole blood was centrifuged (6,000 rpm, 5 min) to get blood plasma. All the blood plasma samples were stored in a refrigerator of −80° C. for further analysis.
Conditions of LC/MS/MS was as follows:
Pharmacokinetic parameters were estimated according to non-compartment model (calculated by WinNonlin software): […]
IV paramater: t1/2 (hr); C0 (ng/mL); AUClast (hr*ng/mL); AUCInf (hr*ng/mL); AUC Extr (%); Vz (L/kg); Vss (L/kg); CL (mL/min/kg); MRT (hr).
PO parameter: t1/2 (hr); tmax (hr); Cmax (ng/mL); AUClast (hr*ng/mL); AUCInf (hr*ng/mL); AUC Extr (%); MRT (hr); AUC/D (hr*mg/mL); F (%).

[6] = test system: HCT116 human colon cancer cell strain; test: In vitro anti-proliferation of tumor cells (CCK-8), HCT-116; type: cell-based; settings: HCT-116, 72 hours
Procedure: as §1
HCT116 human colon cancer cell strain (purchased from Shanghai Institute of Cell Biology, Chinese Academy of Sciences);
as §2, §3, §4, §5, §6, §7, §8

[7] = test system: MiaPaCa-2 human pancreatic cancer cell strain; test: In vitro anti-proliferation of tumor cells (CCK-8), MiaPaCa-2; type: cell-based; settings: MIA PaCa-2, MiaPaCa-2, 72 hours
Procedure: as §1
MiaPaCa-2 human pancreatic cancer cell strain (purchased from American ATCC);
as §2, §3, §4, §5, §6, §7, §8

[8] = test system: HL-60 human acute myeloid leukemia cell strain; test: In vitro anti-proliferation of tumor cells (CCK-8), HL-60; type: cell-based; settings: HL-60, 72 hours
Procedure: as §1
HL-60 human acute myeloid leukemia cell strain (purchased from Shanghai Institute of Cell Biology, Chinese Academy of Sciences);
as §2, §3, §4, §5, §6, §7, §8

[9] = test system: A498 human renal carcinoma cell strain; test: In vitro anti-proliferation of tumor cells (CCK-8), A498; type: cell-based; settings: A498, 72 hours
Procedure: as §1
A498 human renal carcinoma cell strain (purchased from Shanghai Institute of Cell Biology, Chinese Academy of Sciences);
as §2, §3, §4, §5, §6, §7, §8

[10] = test system: NCI-H460 Human large cell lung cancer cell strain; test: In vitro anti-proliferation of tumor cells (CCK-8), NCI-H460; type: cell-based; settings: NCI-H460, 72 hours
Procedure: as §1
NCI-H460 Human large cell lung cancer cell strain (purchased from Shanghai Institute of Cell Biology, Chinese Academy of Sciences);
as §2, §3, §4, §5, §6, §7, §8

[11] = PO 5 mg/kg, average of three mice

IC50 [1] [µM] | IC50 [2] [µM] | IC50 [3] [µM] | IC50 [4] [µM] | bioavailability [5] [%] | AUC(0-t) [5, 11] [ng·h/mL] | IC50 [6] [µM] | IC50 [7] [µM] | IC50 [8] [µM] | IC50 [9] [µM] | IC50 [10] [µM] | IC50 as fold of that of Sorafenib ([4]; MDA-MB-231 cell line) [fold] | Cmax ([5]; PO 5 mg/kg, average of three mice, read-out: Cmax (peak concentration)) [ng/mL] | SMILES
0.947 | 4.51 | 17.9 | 10 | 78.6 | 18900 | 4.56 | 3.06 | 22 | 5.49 | 1.27 |  |  | CNC(=O)c1cc(Oc2ccc(NC(=O)Nc3ccc(Cl)c(C(F)(F)F)c3)cc2)ccn1 [Comparative example 1, Sorafenib, reference compound]
0.808 | 2.77 | 5.76 | 3.05 | 82.9 | 56600 | 3.16 | 2.34 | 18.2 | 4.71 | 1.05 | 0.30 | 3010 | Cn1cc(-c2nccc(Oc3ccc(NC(=O)Nc4ccc(Cl)c(C(F)(F)F)c4)cc3)c2Cl)cn1 [Example 2, 1-(4-chloro-3-(trifluoromethyl)phenyl)-3-(4-(3-chloro-2-(1-methyl-pyrazol-4-yl)-pyridin-4-yl-oxy)phenyl)urea]

Source: patent US9902709B2, “Polysubstituted pyridine compound, preparation method, use and pharmaceutical composition” (PEKING UNIVERSITY FOUNDER GROUP CO., LTD., priority 2014, dated 2018)
